Test results from article PMC2845880 (Bioorganic & medicinal chemistry letters, 2010).

Tests used:
[1] = test system: T. b. brucei, T. cruzi, Leishmania infantum, Plasmodium falciparum; experiment: In vitro biological evaluation against protozoa; format: cell-based; settings: in vitro protozoa panel
TbMCA2 = target: T1, TbMCA2 (Trypanosoma brucei brucei, UniProt Q8T8E7); experiment: In vitro inhibition of TbMCA2; format: biochemical; settings: P1 tail modification / peptoid backbone
T1 sequence (Q8T8E7 1-347): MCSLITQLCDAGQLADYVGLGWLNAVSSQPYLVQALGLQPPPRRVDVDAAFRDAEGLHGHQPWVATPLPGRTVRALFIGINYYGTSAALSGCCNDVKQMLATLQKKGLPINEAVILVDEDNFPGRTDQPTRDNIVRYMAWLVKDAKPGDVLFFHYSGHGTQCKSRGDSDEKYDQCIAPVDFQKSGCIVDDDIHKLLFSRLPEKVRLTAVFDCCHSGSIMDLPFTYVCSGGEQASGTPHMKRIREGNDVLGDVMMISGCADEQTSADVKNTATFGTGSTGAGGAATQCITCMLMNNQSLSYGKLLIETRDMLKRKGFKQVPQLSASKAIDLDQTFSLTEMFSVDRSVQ

[2] = test system: human lung fibroblasts (MRC-5); experiment: Cytotoxicity on human lung fibroblasts; format: cell-based
[3] = test system: Plasmodium falciparum (ring stage and schizont); experiment: In vitro antiparasitic evaluation against Plasmodium falciparum; format: cell-based

For `N#C[C@H](CCCNC(=N)N)NC(=O)OCc1ccccc1` [Compound 1], the “Antiparasitic activity (in words)” value [1] was “no antiparasitic activity”.

In the case of `N#C[C@H](Cc1ccc(N)cc1)NC(=O)OCc1ccccc1` [Compound 2], the “Activity on TbMCA2 (in words)” value (TbMCA2) is reported as “inactive”.

In the case of `N#C[C@H](Cc1ccc(NC(=N)N)cc1)NC(=O)OCc1ccccc1` [Compound 3], the “Activity on TbMCA2 (in words)” value (TbMCA2) is reported as “inactive”.

With `N=C(N)NCCC[C@H](NC(=O)OCc1ccccc1)C(=O)c1nc2ccccc2s1` [Compound 11] the “Cytotoxicity (in words)” value [2] was “without cytotoxicity” and the “Antiparasitic activity against P. falciparum (in words)” value [3] was “very modest”.

For `Cn1c(C(=O)[C@H](CCCNC(=N)N)NC(=O)OCc2ccccc2)nc2ccccc21` [Compound 14], the “Antiparasitic activity against P. falciparum (in words)” value [3] was “very modest”.

With `N=C(N)NCCC[C@@H](/C=C/S(=O)(=O)c1ccccc1)NC(=O)OCc1ccccc1` [Compound 15] the “Antiparasitic activity against P. falciparum (in words)” value [3] was “modest antiparasitic activity”.

For `NCCCC[C@H](NC(=O)OCc1ccccc1)C(=O)c1nc2ccccc2s1` [Compound 16], the “Antiparasitic activity (in words)” value [1] was “modest antiparasitic activities”.

For `N=C(N)NCCCC[C@H](NC(=O)OCc1ccccc1)C(=O)c1nc2ccccc2s1` [Compound 17], the “Antiparasitic activity (in words)” value [1] was “modest antiparasitic activities”.
